Values of other authors as cited in US8496914B2, “Antibacterial oral rinse formulation for preventing coronary artery disease” (priority 2005, dated 2013).

Assays:
[1] = system: Staphylococcus aureus, Staphylococcus epidermidis and Propionibacterium acnes; conditions: Raman et al. 1995
Staphylococcus aureus = conditions: Williams et al. 1997

| Compound | inhibition of three bacterial strains [1] | activity against Staphylococcus aureus (Staphylococcus aureus) |
| --- | --- | --- |
| CC1=CCC2CC1C2(C)C (stereo not drawn) [alpha-pinene] | inhibit |  |
| CC1=CCC(O)(C(C)C)CC1 (stereo not shown) [terpinen-4-ol] | inhibit | equally effective |
| CC1=CCC(C(C)(C)O)CC1 (stereo not drawn) [alpha-terpineol] | inhibit |  |
